This is an account of results in ChEMBL document CHEMBL1157703, “Synthesis, pharmacological studies and molecular modeling of some tetracyclic 1,3-diazepinium chlorides” (Bioorg Med Chem, 2010).

The structures appear in SMILES notation. Calls of active or inactive are those of the source. The rule behind the calls is not given here.

In series [1] the target is T1, GABA A receptor alpha-3/beta-2/gamma-2 (Homo sapiens, UniProt P18507+P34903+P47870).
T1 sequence (P47870 whole entry): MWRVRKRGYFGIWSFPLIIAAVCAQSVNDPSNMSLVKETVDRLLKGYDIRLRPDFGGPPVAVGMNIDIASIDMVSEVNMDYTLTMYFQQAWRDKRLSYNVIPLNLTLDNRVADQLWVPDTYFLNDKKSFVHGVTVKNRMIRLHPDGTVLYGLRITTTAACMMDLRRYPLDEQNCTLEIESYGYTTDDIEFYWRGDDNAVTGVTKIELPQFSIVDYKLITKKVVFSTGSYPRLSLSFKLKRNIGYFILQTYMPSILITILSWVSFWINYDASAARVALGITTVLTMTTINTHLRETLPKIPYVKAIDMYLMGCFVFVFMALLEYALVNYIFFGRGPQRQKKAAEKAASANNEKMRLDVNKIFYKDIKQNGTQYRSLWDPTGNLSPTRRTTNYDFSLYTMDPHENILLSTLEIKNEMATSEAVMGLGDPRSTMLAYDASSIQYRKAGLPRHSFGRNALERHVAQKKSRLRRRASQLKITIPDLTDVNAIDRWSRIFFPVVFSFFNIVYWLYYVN
T1 sequence (P18507 whole entry): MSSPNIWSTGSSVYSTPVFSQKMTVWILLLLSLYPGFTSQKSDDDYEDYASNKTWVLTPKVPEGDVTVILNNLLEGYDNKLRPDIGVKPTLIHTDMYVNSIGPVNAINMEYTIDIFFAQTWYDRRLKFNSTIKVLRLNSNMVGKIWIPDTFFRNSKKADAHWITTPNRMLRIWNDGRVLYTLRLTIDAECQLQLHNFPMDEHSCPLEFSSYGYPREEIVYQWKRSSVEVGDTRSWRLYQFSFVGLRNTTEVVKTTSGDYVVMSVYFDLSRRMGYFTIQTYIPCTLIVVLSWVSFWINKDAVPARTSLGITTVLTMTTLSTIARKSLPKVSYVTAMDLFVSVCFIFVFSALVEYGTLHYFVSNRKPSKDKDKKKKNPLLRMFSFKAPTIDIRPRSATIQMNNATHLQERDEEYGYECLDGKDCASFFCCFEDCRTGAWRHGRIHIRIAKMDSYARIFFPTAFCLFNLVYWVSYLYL
T1 sequence (P34903 whole entry): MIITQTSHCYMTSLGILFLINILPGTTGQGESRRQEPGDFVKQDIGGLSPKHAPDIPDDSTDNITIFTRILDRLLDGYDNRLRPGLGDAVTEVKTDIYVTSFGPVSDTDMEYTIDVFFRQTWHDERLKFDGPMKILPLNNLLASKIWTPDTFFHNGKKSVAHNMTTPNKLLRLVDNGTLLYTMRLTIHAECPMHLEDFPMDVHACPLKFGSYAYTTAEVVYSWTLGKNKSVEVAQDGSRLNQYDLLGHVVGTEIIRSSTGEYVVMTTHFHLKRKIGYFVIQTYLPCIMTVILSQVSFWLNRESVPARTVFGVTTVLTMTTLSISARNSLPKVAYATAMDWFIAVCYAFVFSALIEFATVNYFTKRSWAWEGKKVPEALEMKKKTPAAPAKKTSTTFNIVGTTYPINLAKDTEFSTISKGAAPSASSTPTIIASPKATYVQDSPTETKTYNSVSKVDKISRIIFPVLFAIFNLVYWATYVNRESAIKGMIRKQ
Description: Displacement of [3H]flunitrezepam from GABAA alpha-3-beta-2-gamma-2 receptor by liquid scintillation counting. The series is classed as protein-complex assay. In general terms: Displacement assays read how much labelled ligand stays bound in the presence of the test substance.

For series [2], the species on record is Mus musculus. Briefly: Effect on behavioral activity in Albino mouse assessed as inhibition of diazepam-induced tremors at 0.2 ml/10 g by hippocratic screen. The series is classed as functional, organism-based.
For series [3], the species on record is Mus musculus. Briefly: Effect on behavioral activity in Albino mouse assessed as inhibition of diazepam-induced loss of righting reflex at 0.2 ml/10 g after 2 hrs by hippocratic screen. In kind it is functional, organism-based.
Series [4] is filed under the species Mus musculus. Briefly: Effect on behavioral activity in Albino mouse assessed as inhibition of diazepam-induced pinnal reflex at 0.2 ml/10 g by hippocratic screen. In kind it is functional, organism-based.
For series [5], the species on record is Mus musculus. Briefly: CNS toxicity in Albino mouse assessed as pinnal reflex at 0.2 ml/10 g by hippocratic screen. The series is classed as organism-based. The settings on record: in vivo.
For series [6], the target named is T2, Gamma-aminobutyric acid receptor subunit alpha-5 (Homo sapiens, UniProt P18507+P31644+P47870).
T2 sequence (P31644 whole entry): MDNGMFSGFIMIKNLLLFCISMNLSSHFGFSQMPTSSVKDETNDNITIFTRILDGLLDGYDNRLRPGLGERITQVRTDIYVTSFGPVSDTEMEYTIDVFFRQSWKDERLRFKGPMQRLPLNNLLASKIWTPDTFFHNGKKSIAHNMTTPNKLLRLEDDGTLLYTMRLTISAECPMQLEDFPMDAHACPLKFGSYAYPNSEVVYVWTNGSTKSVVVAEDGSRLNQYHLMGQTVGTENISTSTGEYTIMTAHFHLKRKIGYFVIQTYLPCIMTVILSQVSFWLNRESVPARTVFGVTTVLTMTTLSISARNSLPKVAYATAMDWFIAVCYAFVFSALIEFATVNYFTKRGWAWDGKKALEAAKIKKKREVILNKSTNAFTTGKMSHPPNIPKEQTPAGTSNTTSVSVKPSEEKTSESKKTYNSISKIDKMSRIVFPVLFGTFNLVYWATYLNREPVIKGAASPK
Description: Displacement of [3H]flunitrezepam from GABAA alpha-5-beta-2-gamma-2 receptor by liquid scintillation counting.

Series [7] is filed under the species Mus musculus. Briefly: CNS toxicity in Albino mouse assessed as tremors at 0.2 ml/10 g by hippocratic screen. The settings on record: in vivo. In kind it is organism-based.

With `COc1ccc2c3c(oc2c1)C(=O)Nc1cccc[n+]1C3.[Cl-]`, the Ki – broadly, the dissociation constant of the complex between target and ligand, obtained from inhibition or displacement – turned out to be 1.54 µM in series [1] and 2.36 µM in series [6]. The outcome in the series listed under Mus musculus [2] and in the series filed under Mus musculus [3] was inactive. For the same compound, the outcome in the series filed under Mus musculus [4] was Active. Also, the Activity entry in the series filed under Mus musculus [5] and in the series listed under Mus musculus [7] was “Non-toxic” throughout.
